# Laboratory results reported in patent US20060052435A1, “Selective dopamin d3 receptor agonists for the treatment of sexual dysfunction” (priority 2001, published 2006).
# System: New Zealand rabbits
# Assay: male and female anaesthetised rabbit, pelvic nerve stimulation
# Format: in vivo
# Procedure: 1.1.1 Male and Female Anaesthetised Rabbit Methodology
# Male and female New Zealand rabbits (˜2.5 kg) were pre-medicated with a combination of Medetomidine (Domitor®) 0.5 ml/kg i.m., and Ketamine (Vetalar®) 0.25 ml/kg i.m. whilst maintaining oxygen intake via a face mask. The rabbits were tracheotomised using a Portex™ uncuffed endotracheal tube 3 ID., connected to ventilator and maintained at a ventilation rate of 30-40 breaths per minute, with an approximate tidal volume of 18-20 ml, and a maximum airway pressure of 10 cm H2O. Anaesthesia was then switched to Isoflurane and ventilation continued with O2 at 2 l/min. The right marginal ear vein was cannulated using a 23 G or 24 G catheter, and Lactated Ringer solution perfused at 0.5 ml/min. The rabbit was maintained at 3% Isoflurane during invasive surgery, dropping to 2% for maintenance anaesthesia. The left jugular vein was exposed, isolated and then cannulated with a PVC catheter (17 G) for the infusion of drugs and compounds.
# The left groin area of the rabbit was shaved and a vertical incision was made approximately 5 cm in length along the thigh. The femoral vein and artery were exposed, isolated and then cannulated with a PVC catheter (17 G) for the infusion of drugs and compounds. Cannulation was repeated for the femoral artery, inserting the catheter to a depth of 10 cm to ensure that the catheter reached the abdominal aorta. This arterial catheter was linked to a Gould system to record blood pressure. Samples for blood gas analysis were also taken via the arterial catheter. Systolic and diastolic pressures were measured, and the mean arterial pressure calculated using the formula (diastolic×2+systolic)÷3. Heart rate was measured via the pulse oxymeter and Po-ne-mah data acquisition software system (Ponemah Physiology Platform, Gould Instrument Systems, Inc.).
# A ventral midline incision was made into the abdominal cavity. The incision was about 5 cm in length just above the pubis. The fat and muscle was bluntly dissected away to reveal the hypogastric nerve which runs down the body cavity. It was essential to keep close to the side curve of the pubis wall in order to avoid damaging the femoral vein and artery which lie above the pubis. The sciatic and pelvic nerves lie deeper and were located after further dissection on the dorsal side of the rabbit. Once the sciatic nerve is identified, the pelvic nerve was easily located. The term pelvic nerve is loosely applied; anatomy books on the subject fail to identify the nerves in sufficient detail. However, stimulation of the nerve causes an increase in vaginal and clitoral blood flow in females and in intracavernosal pressure and cavernosal blood flow in males, and innervation of the pelvic region. […]
smiles,measurement,value
"CCCN1CCO[C@H](c2cccc(O)c2)C1.Cl [Example 8, R-(−)-3-(4-Propylmorpholin-2-yl)phenol hydrochloride]",penile intracavernosal pressure and cavernosal blood flow in male rabbits,beneficially enhanced
same,vaginal and clitoral blood flow in female rabbits,beneficially enhanced
